Calls of active or inactive are those of the source. The rule behind the calls is not given here.
Key:
PC-12 = assay: Cytoprotective activity against corticosterone-induced apoptosis in rat PC12 cells incubated for 24 hrs by MTS assay; format: functional, cell-based
Staphylococcus aureus = assay: Antibacterial activity against Staphylococcus aureus assessed as inhibition of microbial growth incubated for 12 hrs by microdilution method; format: functional, organism-based
Salmonella typhi = assay: Antibacterial activity against Salmonella typhi assessed as inhibition of microbial growth incubated for 12 hrs by microdilution method; format: functional, organism-based; conditions: Salmonella enterica subsp. enterica serovar Typhi
Gaeumannomyces graminis = assay: Antifungal activity against Gaeumannomyces graminis incubated for 48 hrs; format: functional, organism-based
Verticillium = assay: Antifungal activity against Verticillium cinnabarinum incubated for 48 hrs; format: functional

In the case of `COc1cc(O)c2c(c1)[C@]13O[C@@]4(C)C[C@](O)(C(=O)C[C@]1(C)O4)[C@@H]3OC2=O`, the Activity (PC-12) is reported as “Active”, the Activity (Staphylococcus aureus) is reported as “inactive” and the Activity (Salmonella typhi) is reported as “inactive”. For the same compound, the Activity (Gaeumannomyces graminis) was “inactive” and the Activity (Verticillium) was “inactive”.

In the case of `COc1cc(O)c2c(c1)[C@@]13O[C@]4(C)C[C@@](O)(C(=O)C[C@@]1(C)O4)[C@H]3OC2=O`, the Activity (PC-12) is reported as “Active”, the Activity (Staphylococcus aureus) is reported as “inactive” and the Activity (Salmonella typhi) is reported as “inactive”. The Activity (Gaeumannomyces graminis) was “inactive” and the Activity (Verticillium) was “inactive”.

Reference: ChEMBL document CHEMBL4422688, “(+)- and (-)-Alternarilactone A: Enantiomers with a Diepoxy-Cage-like Scaffold from an Endophytic Alternaria sp” (J Nat Prod, 2019)
